The source of these data is patent US20200216463A1, “THAILANSTATIN ANALOGS” (priority 2017, published 2020).

SMILES strings stand for the structures.

One experiment relates to HCT 116 cells. In words: In vitro cytotoxicity, CellTiter-Glo, 72 h (Example 11). It is filed as cell-based. The conditions noted are these: Homo sapiens, HCT-116, 72 h. The method, then:
Alternatively, the in vitro cytotoxicity of the compounds of the invention may be measured as described in this example. 180 μl of HCT 116 cells (ATCC, Cat # CCL-247) in McCoy's 5a Medium Modified (Sigma-Aldrich), St. Louis, Mo.)+10% fetal bovine serum were seeded at a density of 5,000 cells/well in a white opaque 96-well plate and incubated for 24 hours at […] in a 5% CO2 incubator. Twenty-four hours post cell seeding, 20 μl of 10× test compounds were diluted such that the final concentrations of the test compounds were in μM concentration. Half log dilutions were used, starting from 10 μM through 0.0001 μM. Puromycin and untreated cells were used as […]. The cells were incubated with the compounds for 72 hours at […] in a 5% CO2 incubator. After 72 hrs, 100 μl/well of CellTiter-Glo® Luminescent Cell Viability Assay reagent (Promega, Inc., Madison, Wis.; Cat # G7573) was added to the plates and incubated at room temperature for 30 minutes. The luminescence signals were captured using EnVision 2105 Multimode Plate Reader (PerkinElmer, Waltham, Mass.). The data were analyzed using non-linear regression curve fit (sigmoidal dose response) in GraphPad Prism software (GraphPad Software, La Jolla, Calif.) by plotting the concentration of drug on the X-axis and the mean % inhibition values on the Y-axis.

A further experiment deals with PANC 05.04. In words: In vitro cytotoxicity on pancreatic cancer cell line (Example 12). Format: cell-based, human. How it is done: (§1) Various cancer cell lines were obtained from the American Type Culture Collection (ATCC)). The cells were cultured in a humidified 5% CO2 incubator in a media consisting of RPMI 1640, L-glutamine, and 10% FBS. The cells were passaged as needed using standard tissue culture techniques. The cells were harvested and plated out into 96-well tissue culture treated plates at a density of 5000 cells per well. After allowing the cells to equilibrate for ˜24 hr in a humidified 5% CO2 incubator, the cells were treated with the test compounds at the indicated concentrations. The cells were exposed to the test compounds for three days with no media change. After the treatment period, CellTiter-Glo) Luminescent Cell Viability Assay reagent solution (Promega, Inc., Madison, Wis.; Cat. # G7573) was introduced to each well. The Cell TiterGlo-containing plates were then read on a SpectroMax® iD3 Multi-Mode Microplate reader (Molecular Devices, LLC, San Jose, Calif.). The degree of luminescence was dictated by the abundance of live cells.

The subject of the next experiment is PANC 10.05. The description is as above. Format: cell-based, human. How it is done: as §1

For orientation: IC50 means the concentration that inhibits the measured activity by half. `COC(=O)C[C@@H]1C[C@@]2(CO2)[C@H](O)[C@@H](/C=C/C(C)=C/C[C@@H]2O[C@H](C)[C@H](NC(=O)/C=C\C(C)c3cc(OC)no3)C[C@@H]2C)O1` (stereo partly drawn) [Compound 5, Methyl 2-((3R, 5S, 7R, 8R)-8-hydroxy-7-((1E, 3E)-5-((2S, 3S, 5R, 6R)-5-((Z)-4-(3-methoxyisoxazol-5-yl)pent-2-enamido)-3,6-dimethyltetrahydro-2H-pyran-2-yl)-3-methylpenta-1,3-dienyl)-1,6-dioxaspiro[2.5]octan-5-yl)acetate] yielded an IC50 in the experiment on HCT 116 cells of 310 nM. Turning to `CC(=O)O[C@@H](C)/C=C\C(=O)N[C@@H]1C[C@H](C)[C@H](C/C=C(C)/C=C/[C@H]2O[C@H](CC(=O)O)C[C@@]3(CO3)[C@@H]2O)O[C@@H]1C` [Thailanstatin A], the IC50 in the experiment with PANC 05.04 was determined as 3 nM; in the experiment on PANC 10.05, 4 nM.
